Assay results reported in patent US20150344485A1, “BICYCLIC PYRIMIDONE COMPOUNDS AS INHIBITORS OF LP-PLA2” (GLAXOSMITHKLINE INTELLECTUAL PROPERTY DEVELOPMENT LIMITED, priority 2013, published 2015).

Each compound was assayed against T1, Lp-PLA2 in human plasma (Homo sapiens, UniProt Q13093) (assay: Lp-PLA2 human plasma assay (Thio-PAF assay)). Conditions: pooled human plasma; read-out: pIC50 values in the thio-PAF assay (converted).
T1 construct: from tissue; host or cells: pooled human plasma
T1 sequence (Q13093 22-441): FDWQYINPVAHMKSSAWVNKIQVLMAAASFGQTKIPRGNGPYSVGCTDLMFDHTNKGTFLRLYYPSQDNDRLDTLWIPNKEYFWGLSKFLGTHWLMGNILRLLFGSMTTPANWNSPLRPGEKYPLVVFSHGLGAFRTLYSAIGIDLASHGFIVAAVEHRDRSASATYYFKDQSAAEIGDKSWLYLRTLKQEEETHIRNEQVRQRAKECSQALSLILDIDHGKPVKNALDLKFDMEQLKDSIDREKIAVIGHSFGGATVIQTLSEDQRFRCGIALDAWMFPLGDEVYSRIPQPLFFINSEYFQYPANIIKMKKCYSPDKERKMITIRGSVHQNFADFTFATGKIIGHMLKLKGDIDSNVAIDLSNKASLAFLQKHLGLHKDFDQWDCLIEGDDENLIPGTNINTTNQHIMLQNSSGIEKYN
Format: biochemical
From the text: The human plasma assay utilizes a thioester analog of PAF (phosphatidylcholine), where hydrolysis yields to the formation of a phospholipid containing a free thiol group. The amount of thiol is quantitated continuously by reacting with CPM (7-diethylamino-3-(4′-maleimidylphenyl)-4-methylcoumarin), a maleimide which increases in fluoresence after Michael addition of thiols. This assay may detect the activity of Lp-PLA2 in human plasma, as determined by specific inhibition by Lp-PLA2 inhibitors.
The thio-PAF assay was run as a quenched 15 μL assay. Compounds source plate was prepared by making 1:3 (by volume) serial dilution of the compounds into pure DMSO on 384-well microplate. 0.01 μL of compounds on compound source plate were transferred to 384 well Greiner 784076 (black) low-volume plates by ECHO liquid dispenser. 8 μL pooled human plasma, which was previously aliquoted and frozen, was added. Plates were centrifuged for 10 sec at 500 rpm. After 30 minutes preincubation, 2 μL of substrate solution comprising 2.5 mM 2-thio-PAF [from ethanol stock], 32 μM CPM [from a DMSO stock] and 3.2 mM NEM (N-ethylmaleimide) [made fresh daily in DMSO] in assay buffer of 50 mM HEPES, pH 7.4, 150 mM NaCl, 1 mM CHAPS was added to 384 well Greiner 784076 (black) low-volume plates by BRAVO liquid handling station. After 2 mins, reaction was quenched with 5 μL of 5% aqueous trifluoroacetic acid (TFA). Plates were covered to protect from light and incubated for 40 min at room temperature. Plates were read at ex: 380/em: 485 using-Envision microplate reader. pIC50 data, curve and QC analysis was conducted by using XLFit module in Excel.
With CC1CCn2c(cc(OCc3ccc(F)cc3)nc2=O)N1C (stereo not drawn) [E9, 8-((4-fluorobenzyl)oxy)-1,2-dimethyl-3,4-dihydro-1H-pyrimido[1,6-a]pyrimidin-6(2H)-one] the IC50 was no more than 100 nM.
CC1CCn2c(cc(OCc3cccc(C#N)c3)nc2=O)N1C (stereo not drawn) [E10, 3-(((1,2-dimethyl-6-oxo-2,3,4,6-tetrahydro-1H-pyrimido[1,6-a]pyrimidin-8-yl)oxy)methyl)benzonitrile] was tested, and the IC50 was no more than 100 nM.
With CC1CCn2c(cc(OCc3cccc(F)c3)nc2=O)N1C (stereo not drawn) [E12, 8-((3-fluorobenzyl)oxy)-1,2-dimethyl-3,4-dihydro-1H-pyrimido[1,6-a]pyrimidin-6(2H)-one] the IC50 was no more than 100 nM.
C[C@@H]1CCn2c(cc(OCc3cc(F)c(F)c(F)c3)nc2=O)N1C [E16, (R)-1,2-dimethyl-8-((3,4,5-trifluorobenzyl)oxy)-3,4-dihydro-1H-pyrimido[1,6-a]pyrimidin-6(2H)-one] was tested, and the IC50 was no more than 100 nM.
Work on C[C@@H]1CCn2c(cc(OCc3cccc(F)c3F)nc2=O)N1C [E18, (R)-8-((2,3-difluorobenzyl)oxy)-1,2-dimethyl-3,4-dihydro-1H-pyrimido[1,6-a]pyrimidin-6(2H)-one] yielded an IC50 of no more than 100 nM.
For [2H]C([2H])(Oc1cc2n(c(=O)n1)CC[C@@H](C)N2C)c1cccc(F)c1F [E19, (R)-8-((2,3-difluorophenyl)dideuteromethoxy)-1,2-dimethyl-3,4-dihydro-1H-pyrimido[1,6-a]pyrimidin-6(2H)-one], the IC50 was no more than 100 nM.
For C[C@@H]1CCn2c(cc(OCc3ccc(F)cc3)nc2=O)N1C [E20, (R)-8-((4-fluorobenzyl)oxy)-1,2-dimethyl-3,4-dihydro-1H-pyrimido[1,6-a]pyrimidin-6(2H)-one], the IC50 was no more than 100 nM.
C[C@@H]1CCn2c(cc(OCc3ccc(F)cc3)nc2=O)N1 [E27, (R)-8-((4-fluorobenzyl)oxy)-2-methyl-3,4-dihydro-1H-pyrimido[1,6-a]pyrimidin-6(2H)-one] was tested, and the IC50 was no more than 100 nM.
With [2H]C([2H])(Oc1cc2n(c(=O)n1)CC[C@H](C)N2C)c1cc(F)c(F)c(F)c1 [E36, (S)-8-(dideutero(3,4,5-trifluorophenyl)methoxy)-1,2-dimethyl-3,4-dihydro-1H-pyrimido[1,6-a]pyrimidin-6(2H)-one] the IC50 was no more than 100 nM.
With C[C@H]1CCn2c(cc(OCc3ccc(F)c(F)c3)nc2=O)N1 [E40, (S)-8-((3,4-difluorobenzyl)oxy)-2-methyl-3,4-dihydro-1H-pyrimido[1,6-a]pyrimidin-6(2H)-one] the IC50 was no more than 100 nM.
Compound C[C@H]1CCn2c(cc(OCc3cc(F)c(F)cc3F)nc2=O)N1C [E42, (S)-1,2-dimethyl-8-((2,4,5-trifluorobenzyl)oxy)-3,4-dihydro-1H-pyrimido[1,6-a]pyrimidin-6(2H)-one] has an IC50 of no more than 100 nM.
In the case of C[C@H]1CCn2c(cc(OCc3cc(F)c(F)c(F)c3)nc2=O)N1 [E45, (S)-2-methyl-8-((3,4,5-trifluorobenzyl)oxy)-3,4-dihydro-1H-pyrimido[1,6-a]pyrimidin-6(2H)-one], the IC50 is reported as no more than 10 nM.
[2H]C([2H])(Oc1cc2n(c(=O)n1)CC[C@H](C)N2C)c1cc(F)cc(F)c1 [E49, (S)-8-((3,5-difluorophenyl)dideuteromethoxy)-1,2-dimethyl-3,4-dihydro-1H-pyrimido[1,6-a]pyrimidin-6(2H)-one] was tested, and the IC50 was no more than 100 nM.
For [2H]C([2H])(Oc1cc2n(c(=O)n1)CC[C@@H](C)N2C)c1cc(F)cc(F)c1 [E50, (R)-8-((3,5-difluorophenyl)dideuteromethoxy)-1,2-dimethyl-3,4-dihydro-1H-pyrimido[1,6-a]pyrimidin-6(2H)-one], the IC50 was no more than 100 nM.
For CCN1c2cc(OCc3cc(F)c(F)cc3F)nc(=O)n2CC[C@@H]1C [E52, (S)-1-ethyl-2-methyl-8-((2,4,5-trifluorobenzyl)oxy)-3,4-dihydro-1H-pyrimido[1,6-a]pyrimidin-6(2H)-one], the IC50 was no more than 100 nM.
Work on CCN1c2cc(OCc3cccc(F)c3F)nc(=O)n2CC[C@@H]1C [E53, (S)-8-((2,3-difluorobenzyl)oxy)-1-ethyl-2-methyl-3,4-dihydro-1H-pyrimido[1,6-a]pyrimidin-6(2H)-one] yielded an IC50 of no more than 100 nM.
[2H]C([2H])(Oc1cc2n(c(=O)n1)CCC(C)(C)N2C)c1cc(F)c(F)c(F)c1 [E55, 8-(dideutero(3,4,5-trifluorophenyl)methoxy)-1,2,2-trimethyl-3,4-dihydro-1H-pyrimido[1,6-a]pyrimidin-6(2H)-one] was tested, and the IC50 was no more than 100 nM.
C[C@H]1CCn2c(cc(OCc3cc(F)c(Oc4ccc(Cl)c(F)c4)c(F)c3)nc2=O)N1C [E58, (S)-8-((4-(4-chloro-3-fluorophenoxy)-3,5-difluorobenzyl)oxy)-1,2-dimethyl-3,4-dihydro-1H-pyrimido[1,6-a]pyrimidin-6(2H)-one] showed an IC50 of no more than 10 nM.
With C[C@H]1CCn2c(cc(OCc3cc(F)c(Oc4cccc(Cl)c4)c(F)c3)nc2=O)N1C [E59, (S)-8-((4-(3-chlorophenoxy)-3,5-difluorobenzyl)oxy)-1,2-dimethyl-3,4-dihydro-1H-pyrimido[1,6-a]pyrimidin-6(2H)-one] the IC50 was no more than 100 nM.
Compound C[C@H]1CCn2c(cc(OCc3ccc(Oc4ccc(C(F)(F)F)cc4)c(C#N)c3)nc2=O)N1C [E61, (S)-5-(((1,2-dimethyl-6-oxo-2,3,4,6-tetrahydro-1H-pyrimido[1,6-a]pyrimidin-8-yl)oxy)methyl)-2-(4-(trifluoromethyl)phenoxy)benzonitrile] has an IC50 of no more than 10 nM.
C[C@@H]1CCn2c(cc(OCc3cc(F)c(Oc4ccc(Cl)c(F)c4)c(F)c3)nc2=O)N1C [E63, (R)-8-((4-(4-chloro-3-fluorophenoxy)-3,5-difluorobenzyl)oxy)-1,2-dimethyl-3,4-dihydro-1H-pyrimido[1,6-a]pyrimidin-6(2H)-one] gave an IC50 of no more than 10 nM.
C[C@@H]1CCn2c(cc(OCc3cc(F)c(Oc4cccc(Cl)c4)c(F)c3)nc2=O)N1C [E64, (R)-8-((4-(3-chlorophenoxy)-3,5-difluorobenzyl)oxy)-1,2-dimethyl-3,4-dihydro-1H-pyrimido[1,6-a]pyrimidin-6(2H)-one] gave an IC50 of no more than 10 nM.
For C[C@H]1CCn2c(cc(OCc3ccc(Oc4ccc(Cl)c(F)c4)c(C#N)c3)nc2=O)N1C [E66, (S)-2-(4-chloro-3-fluorophenoxy)-5-(((1,2-dimethyl-6-oxo-2,3,4,6-tetrahydro-1H-pyrimido[1,6-a]pyrimidin-8-yl)oxy)methyl)benzonitrile], the IC50 was no more than 10 nM.
Work on CN1c2cc(OCc3cccc(F)c3F)nc(=O)n2CCC1(C)C [E72, 8-((2,3-difluorobenzyl)oxy)-1,2,2-trimethyl-3,4-dihydro-1H-pyrimido[1,6-a]pyrimidin-6(2H)-one] yielded an IC50 of no more than 100 nM.
CN1c2cc(OCc3cc(F)cc(F)c3)nc(=O)n2CCC1(C)C [E74, 8-((3,5-difluorobenzyl)oxy)-1,2,2-trimethyl-3,4-dihydro-1H-pyrimido[1,6-a]pyrimidin-6(2H)-one] was tested, and the IC50 was no more than 100 nM.
In the case of C[C@@H]1CCn2c(cc(OCc3cccc(C#N)c3)nc2=O)N1C [E127, (R)-3-(((1,2-dimethyl-6-oxo-2,3,4,6-tetrahydro-1H-pyrimido[1,6-a]pyrimidin-8-yl)oxy)methyl)benzonitrile], the IC50 is reported as no more than 100 nM.
With C[C@H]1CCn2c(cc(OCc3cccc(C#N)c3)nc2=O)N1C [E128, (S)-3-(((1,2-dimethyl-6-oxo-2,3,4,6-tetrahydro-1H-pyrimido[1,6-a]pyrimidin-8-yl)oxy)methyl)benzonitrile] the IC50 was no more than 100 nM.
C[C@@H]1CCn2c(cc(OCc3cccc(F)c3)nc2=O)N1C [E130, (R)-8-((3-fluorobenzyl)oxy)-1,2-dimethyl-3,4-dihydro-1H-pyrimido[1,6-a]pyrimidin-6(2H)-one] gave an IC50 of no more than 100 nM.
Work on CN1c2cc(OCc3cccc(F)c3)nc(=O)n2CCC1(C)C [E134, 8-((3-fluorobenzyl)oxy)-1,2,2-trimethyl-3,4-dihydro-1H-pyrimido[1,6-a]pyrimidin-6(2H)-one] yielded an IC50 of no more than 100 nM.
With CC(C)N1c2cc(OCc3cccc(F)c3F)nc(=O)n2CC[C@@H]1C [E139, (S)-8-((2,3-difluorobenzyl)oxy)-1-isopropyl-2-methyl-3,4-dihydro-1H-pyrimido[1,6-a]pyrimidin-6(2H)-one] the IC50 was no more than 100 nM.
